Reference: PMC9184620, “TAS1553, a small molecule subunit interaction inhibitor of ribonucleotide reductase, exhibits antitumor activity by causing DNA replication stress” (Communications Biology, 2022)

What was measured:
[1] = biological target: T1, interaction between R1 and R2 (human RNR) (Homo sapiens, UniProt P23921); assay: AlphaLISA binding assay (interaction between His-R1 and GST-R2); details: recombinant R1 and R2; mean ± SD
T1 construct: host or cells: Escherichia coli (His-R1)
T1 sequence (P23921 1-792): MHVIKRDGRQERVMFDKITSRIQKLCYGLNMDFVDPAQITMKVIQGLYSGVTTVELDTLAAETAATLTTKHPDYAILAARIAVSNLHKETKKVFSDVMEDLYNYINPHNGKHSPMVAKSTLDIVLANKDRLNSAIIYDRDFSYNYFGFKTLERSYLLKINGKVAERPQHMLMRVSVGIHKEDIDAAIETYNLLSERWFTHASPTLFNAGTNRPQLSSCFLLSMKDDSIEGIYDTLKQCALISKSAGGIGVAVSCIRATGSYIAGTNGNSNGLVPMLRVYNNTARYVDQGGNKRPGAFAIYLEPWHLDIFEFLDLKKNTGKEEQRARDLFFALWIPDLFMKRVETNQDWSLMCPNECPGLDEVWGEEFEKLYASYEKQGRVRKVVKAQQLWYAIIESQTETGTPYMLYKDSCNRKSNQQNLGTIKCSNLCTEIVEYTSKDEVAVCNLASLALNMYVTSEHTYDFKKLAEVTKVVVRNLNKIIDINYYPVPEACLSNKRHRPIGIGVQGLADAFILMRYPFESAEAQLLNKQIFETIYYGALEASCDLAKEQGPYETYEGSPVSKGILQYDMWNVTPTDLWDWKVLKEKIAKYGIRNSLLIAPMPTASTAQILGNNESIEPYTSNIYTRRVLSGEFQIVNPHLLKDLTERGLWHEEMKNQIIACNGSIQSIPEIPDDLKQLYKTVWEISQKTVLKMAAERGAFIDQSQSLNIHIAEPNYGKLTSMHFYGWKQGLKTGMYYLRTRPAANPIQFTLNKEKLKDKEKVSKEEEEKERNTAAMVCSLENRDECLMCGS

[2] = test system: MV-4-11 xenograft; assay: Antitumor activity in rats bearing MV-4-11 xenografts; format: in vivo
Procedure: Next, we evaluated the antitumor activity of a high-dose administration of TAS1553 and cytarabine in rats bearing MV-4-11 xenografts. […] The rats were treated with cytarabine for 5 days at 16 and 32 mg/kg. […] In addition to the hematologic tumor, we evaluated the antitumor activity of TAS1553 in mice implanted with HCC38 cell line as a solid tumor model. […] Finally, TAS1553 was evaluated for its survival benefit in a mouse model. To achieve this, we established mice bone marrow cells harboring the human MLL-AF9 fusion gene, which is known as a driver gene for AML in humans as well as mice[48].
For the subcutaneous implantation model of MV-4-11, F344/NJcl-rnu/rnu rats were irradiated with X-ray (4 Gy) to improve the efficiency of xenograft implantation. Two days after X-ray irradiation, MV-4-11 cells suspended in PBS with 50 vol% Matrigel were inoculated into the rats (2 × 10^7 cells/animal). In the mice subcutaneous implantation model, HCC38 cells suspended same as above were inoculated into male BALB/cAJcl-nu/nu mice (1 × 10^7 cells /body). […] Antitumor activity and body weight change were evaluated as previously reported. Dunnett test using the SAS software package in EXSUS (CAC Croit) was used to compare the tumor volume (P < 0.05).

[3] = test system: intracellular dNTP pools in HCC38 and MV-4-11 cells; assay: Measurement of intracellular dNTP/ATP pools by LC-MS/MS; format: cell-based, human
Procedure: Next, we examined the RNR inhibitory effect of TAS1553 in cells by measuring dNDP pools which are direct products of RNR. However, all dNDP pools could not be detected using LC-MS/MS due to detection limit. Then we determined whether TAS1553 affected the intracellular dNTP pools as surrogate marker for RNR inhibition in cells. LC-MS/MS could not measure dGTP pool due to masking dGTP peak by ATP, as previously reported; thus, dATP, dCTP and dTTP pools were analyzed. HCC38 and MV-4-11, an acute myelogenous leukemia (AML) cell line, were exposed to TAS1553, and the peak area of each dNTP was determined using cell extracts.
Next, we evaluated both concentration-dependent and time-dependent effects of TAS1553 on the dATP pool in HCC38 and MV-4-11 cell lines using absolute quantification. After 2 h of TAS1553 exposure, there was a concentration-dependent reduction of intracellular dATP pool in both cell lines (Fig. 2c). Furthermore, the intracellular dATP pool was reduced within 30 minutes when treated with TAS1553 at 1 or 10 µmol/L in both cell lines (Fig. 2d), consistent with its inhibitory effect on the protein-protein interaction (Fig. 2a).
Cells were plated, cultured for 1 day, treated with the compound, and harvested. The collected cells were homogenized with 0.42 mol/L perchloric acid, including IS-dATP at 0.6 μmol/L and IS-ATP at 2.4 μmol/L as internal standards for dATP and ATP, respectively. At each time point, xenograft tumors were excised after single dosing of the test compound. The tissues were homogenized with 0.42 mol/L perchloric acid, including IS-dATP at 3 μmol/L as an internal standard for dATP and ATP. Subsequently, a dichloromethane solution containing 0.5 N tri-n-octylamine was added to the perchloric acid-soluble fraction obtained by centrifugation. The aqueous layer collected after vortex and centrifugation was analyzed by LC-MS/MS. LC-MS/MS analysis was performed with a prominence HPLC system connected to a LCMS-8040 tandem mass spectrometer with ESI probe (SHIMADZU CORPORATION). […]

[4] = 400 mg/kg oral once daily for 14 days

Cc1ccc(F)c([C@@H](C)[C@H](NS(=O)(=O)c2ccc(Cl)cc2C(N)=O)c2n[nH]c(=O)o2)c1C [TAS1553, 5-chloro-2-{N-[(1S,2R)-2-(6-fluoro-2,3-dimethylphenyl)-1-(5-oxo-4,5-dihydro-1,3,4-oxadiazol-2-yl)propyl]sulfamoyl}benzamide]
IC50 [1]: 0.0396 ± 0.0042 µM
T/C (mean tumor volume treated/control) on Day 15 ([2]; 50 mg/kg oral once daily for 14 days): 52.0%
T/C (mean tumor volume treated/control) on Day 15 ([2]; 100 mg/kg oral once daily for 14 days): 45.0%
T/C (mean tumor volume treated/control) on Day 15 ([2]; 200 mg/kg oral once daily for 14 days): 29.4%
body weight change [2, 4]: without a reduction in body weight
tumor growth outcome [2, 4]: tumor disappearance in all the treated animals
body weight change ([2]; 50, 100, 200 mg/kg oral once daily for 14 days): none of the groups showed any dramatic weight loss
effect on intracellular dATP area ([3]; HCC38 and MV-4-11, 2 h): dramatically reduced
effect on intracellular dCTP and dTTP areas ([3]; HCC38 and MV-4-11, 2 h): increased
effect on intracellular ATP pool ([3]; until 2 h, 10 µmol/L): did not affect the intracellular ATP pool remarkably
